Test results as given in patent US20010014748A1, “HIV INTEGRASE INHIBITORS” (priority 1998, published 2001).

biological target: T1, HIV integrase (Human immunodeficiency virus type 1 group M subtype B, UniProt P04585); assay: HIV integrase assay: strand transfer catalyzed by recombinant integrase; assay type: biochemical; details: strand transfer activity of recombinant integrase
T1 construct: strand transfer reaction catalyzed by the recombinant integrase in vitro
Procedure: HIV Integrase Assay: Strand Transfer Catalyzed by Recombinant Integrase
Assays for the strand transfer activity of integrase were conducted according to Wolfe, A. L. et al., J. Virol. 70, 1424 (1996, hereby incorporated by reference for these purposes. Data for representative compounds of the present invention follow: […]

Compound	IC50 [µM]
CC(=O)OC1C(O)C2=C(CCC3C2(C)CC(OC(=O)CCCCCCCCCCCCCCCO)C(OS(=O)(=O)O)C3(C)C)C2=CCC(C(C)CCC3(C(C)(C)O)CO3)C21C (centres unmarked) [Compound A1]	14
C=C(CCC(C)C1CCC2C3=C(C(O)C(OC(C)=O)C21C)C1(C)CC(O)C(OS(=O)(=O)O)C(C)(C)C1CC3)C(C)C (centres unmarked) [Compound A3]	15
C=C(CCC(C)C1CC=C2C3=C(C(O)C(OC(C)=O)C21C)C1(C)CC(O)C(OC(=O)CCC(=O)O)C(C)(C)C1CC3)C(C)C (centres unmarked) [Compound J]	16
C=C(CCC(C)C1CC=C2C3=C(C(O)C(OC(C)=O)C21C)C1(C)CC(OC(=O)CCC(=O)O)C(O)C(C)(C)C1CC3)C(C)C (centres unmarked) [Compound K]	68
C=C(CC[C@@H](C)[C@H]1CC=C2C3=C([C@@H](O)[C@H](OC(C)=O)C21C)C1(C)C[C@@H](OC(=O)CN)[C@H](OC(=O)CN)C(C)(C)[C@@H]1CC3)C(C)C (some centres unmarked) [Compound X]	5
